Patent US20180073031A1, “TRANSCRIPTIONAL SENSOR FOR BILE ACIDS IN BACTEROIDES THETAIOTAOMICRON” (priority 2016, published 2018)

Tests used:
[1] = test system: bile acid sensor BreR from V. cholerae; assay type: cell-based; conditions: for sensor sensitive to substance (FIG. 4 legend): in vitro functionality; for induction of reporter luminescence by bile acid: strain grown with various concentrations of bile acids, FIGS. 4B-4G; for Sensitivity: BreR bile acid sensor in B. thetaiotaomicron; for Sensitivity / Basal Activity: ± SD; for Basal Activity / Dynamic Range: BreR bile acid sensor; for Basal Activity: basal reporter luminescence; for Dynamic Range: reporter induction
[2] = test system: VFA0359 from Vibrio fischeri; assay: Luciferase assay of bile acid sensor using VFA0359 in B. thetaiotaomicron; assay type: cell-based; conditions: same operator sequence as BreR

Row | SMILES | sensor sensitive to substance (FIG. 4 legend) [1] | induction of reporter luminescence by bile acid [1] | induced gene expression of the reporter construct [2] | Sensitivity [1] | Basal Activity [1] | Dynamic Range [1] | relative sensitivity of the sensor among deconjugated bile acids [1]
1 | C[C@H](CCC(=O)NCC(=O)O)[C@H]1CC[C@H]2[C@@H]3[C@H](O)C[C@@H]4C[C@H](O)CC[C@]4(C)[C@H]3C[C@H](O)[C@]12C [GCA, glycocholic acid] | not | does not sense | – | – | – | – | –
2 | C[C@H](CCC(=O)NCCS(=O)(=O)O)[C@H]1CC[C@H]2[C@@H]3[C@H](O)C[C@@H]4C[C@H](O)CC[C@]4(C)[C@H]3C[C@H](O)[C@]12C [TCA, taurocholic acid] | not | does not sense | – | – | – | – | –
3 | C[C@H](CCC(=O)O)[C@H]1CC[C@H]2[C@@H]3CC[C@@H]4C[C@H](O)CC[C@]4(C)[C@H]3C[C@H](O)[C@]12C [DCA, deoxycholic acid] | – | – | ~600 fold | 25.8 ± 7.6 Lum/μM*10^−5 | 1.7 ± 0.8 Lum × 10^4 | 71.5 ± 3.4 fold-change | –
4 | C[C@H](CCC(=O)O)[C@H]1CC[C@H]2[C@@H]3[C@H](O)C[C@@H]4C[C@H](O)CC[C@]4(C)[C@H]3CC[C@]12C [CDCA, chenodeoxycholic acid] | sensitive | induced luminescence in a dose dependent manner | – | 2.3 ± 1.1 Lum/μM*10^−5 | 1.9 ± 0.4 Lum × 10^4 | 25.8 ± 11.1 fold-change | moderately sensitive
5 | CC(C)CCC[C@@H](C)[C@H]1CC[C@H]2[C@@H]3CC=C4C[C@@H](O)CC[C@]4(C)[C@H]3CC[C@]12C [cholesterol] | not | – | – | – | – | – | –
6 | C[C@H](CCC(=O)O)[C@H]1CC[C@H]2[C@@H]3CC[C@@H]4C[C@H](O)CC[C@]4(C)[C@H]3CC[C@]12C [LCA, lithocholic acid] | – | – | – | 1.4 ± 0.8 Lum/μM*10^−5 | 2.2 ± 0.9 Lum × 10^4 | 17.5 ± 4.9 fold-change | –
7 | C[C@H](CCC(=O)O)[C@H]1CC[C@H]2[C@@H]3[C@H](O)C[C@@H]4C[C@H](O)CC[C@]4(C)[C@H]3C[C@H](O)[C@]12C [CA, cholic acid] | sensitive | induced luminescence in a dose dependent manner | – | 0.8 ± 0.2 Lum/μM*10^−5 | 2.1 ± 0.7 Lum × 10^4 | 18.5 ± 3.8 fold-change | least sensitive
